In US20090093454A1, “Chemical Compounds” (priority 2005, published 2009):
Counter-ions that a name gives are not always drawn.

Tested on: HIV-1 gp160 (HXB2 strain) HEK-293 cells fusing with HOS (hCXCR4/hCCR5/hCD4/pHIV-LTR-luciferase) cells
Assay: Cell/cell fusion assay (luciferase)
Type: cell-based
Conditions: Homo sapiens, HEK (tat/rev/gp160 HXB2) + HOS cells, 24 h, read-out: Fusion assay (pIC50) (converted)
From the text: The complete coding sequences of HIV-1 tat (GenBank Accession No. X07861) and rev (GenBank Accession No. M34378) were cloned into pcDNA3.1 expression vectors containing G418 and hygromycin resistance genes, respectively. The complete coding sequence of the HIV-1 (HXB2 strain) gp160 envelope gene (nucleotide bases 6225-8795 of GenBank Accession No. K03455) was cloned into plasmid pCRII-TOPO. The three HIV genes were additionally inserted into the baculovirus shuttle vector, pFastBacMam1, under the transcriptional control of the CMV promoter. A construction of the pHIV-I LTR containing mutated NFkB sequences linked to the luciferase reporter gene was prepared by digesting pcDNA3.1, containing the G418 resistance gene, with Nru I and Bam HI to remove the CMV promoter. LTR-luc was then cloned into the Nru I/Bam HI sites of the plasmid vector. Plasmid preparations were performed after the plasmids were amplified in Escherichia coli strain DH5-alpha. The fidelity of the inserted sequences was confirmed by double-strand nucleotide sequencing using an ABI Prism Model 377 automated sequencer.
Recombinant BacMam baculoviruses were constructed from pFastBacMam shuttle plasmids by using the bacterial cell-based Bac-to-Bac system. Viruses were propagated in Sf9 (Spodoptera frugiperda) cells cultured in Hink's TNM-FH Insect media supplemented with 10% (v/v) fetal bovine serum and 0.1% (v/v) pluronic F-68 according to established protocols.
Human osteosarcoma (HOS) cells that naturally express human CXCR4 were transfected with human CCR5, human CD4 and the pHIV-LTR-luciferase plasmid using FuGENE 6 transfection reagent. Single cells were isolated and grown under selection condition in order to generate a stable HOS (hCXCR4/hCCR5/hCD4/pHIV-LTR-luciferase) clonal cell line. The cells were maintained in Dulbeccos modified Eagles media supplemented with 10% fetal calf serum (FCS), G418 (400 ug/ml), puromycin (1 ug/ml), mycophenolic acid (40 ug/ml), xanthine (250 ug/ml) and hypoxanthine (13.5 ug/ml) to maintain a selection pressure for cells expressing the LTR-luciferase, hCCR5 and hCD4, respectively. Human embryonic kidney (HEK-293) cells stably transfected to express the human macrophage scavenging receptor (Class A, type 1; GenBank Accession No. D90187), were maintained in DMEM/F-12 media (1:1) supplemented with 10% FCS and 1.5 ug/ml puromycin. The expression of this receptor by the HEK-293 cells enhances their ability to stick to tissue culture treated plasticware.
HEK-293 cells were harvested using enzyme-free cell dissociation buffer. The cells were resuspended in DMEM/F-12 media supplemented with 10% FCS and 1.5 ug/ml and counted. Tranductions were performed by direct addition of BacMam baculovirus containing insect cell media to cells. The cells were simultaneously transduced with BacMam baculovirus expressing HIV-1 tat, HIV-1 rev and HIV-1 gp160 (from the HXB2 HIV strain). Routinely an MOI of 10 of each virus was added to the media containing the cells. 2 mM butyric acid was also added to the cells at this stage to increase protein expression in transduced cells. The cells were subsequently mixed and seeded into a flask at 30 million cells per T225. The cells were incubated at 37° C., 5% CO2, 95% humidity for 24 h to allow for protein expression.
HEK and HOS cells were harvested in DMEM/F-12 media containing 2% FCS and DMEM media containing 2% FCS, respectively, with no selection agents added. Compounds were plated as 1 ul spots in 100% DMSO on a 96-well CulturPlate plates. HOS cells (50 ul) were added first to the wells, followed immediately by the HEK cells (50 ul). The final concentration of each cell type was 20,000 cells per well. Following these additions, the cells were returned to a tissue culture incubator (37° C.; 5% CO2/95% air) for an additional 24 h.
Following the 24 h incubation, total cellular luciferase activity was measured using the LucLite Plus assay kit (Packard, Meridien, Conn.). […]

SMILES | IC50 [nM]
CN(C)CCCn1c(CN2CCC[C@@H]3CCc4cccnc4[C@@H]32)nc2ccccc21 [Example 11A, (3-{2-[(4aS,10bR)-3,4,4a,5,6,10b-Hexahydro-1,10-phenanthrolin-1(2H)-ylmethyl]-1H-benzimidazol-1-yl}propyl)dimethylamine] | 1260
NCCCn1c(CN2CCC[C@H]3CCc4cccnc4[C@H]32)nc2ccccc21 (racemic) [Example 9, (cis)-3-[2-(3,4,4a,5,6,10b-Hexahydro-1,10-phenanthrolin-1(2H)-ylmethyl)-1H-benzimidazol-1-yl]-1-propanamine] | 89.1
CN1CCN(c2cccc3nc(CN4CCC[C@H]5CCc6cccnc6[C@H]54)cn23)CC1 (racemic) [Example 15B, (cis)-1-{[5-(4-Methyl-1-piperazinyl)imidazo[1,2-a]pyridin-2-yl]methyl}-1,2,3,4,4a,5,6,10b-octahydro-1,10-phenanthroline] | 5.5
CN1CCCC(Cn2c(CN3CCC[C@H]4CCc5cccnc5[C@H]43)nc3ccccc32)C1 (mixture of isomers) [Example 13, (cis)-1-({1-[(1-Methyl-3-piperidinyl)methyl]-1H-benzimidazol-2-yl}methyl)-1,2,3,4,4a,5,6,10b-octahydro-1,10-phenanthroline] | 31.6
CN(C)CCCn1c(CN2CCC[C@H]3CCc4cccnc4[C@H]32)nc2ccccc21 [Example 11B, (3-{2-[(4aR,10bS)-3,4,4a,5,6,10b-Hexahydro-1,10-phenanthrolin-1(2H)-ylmethyl]-1H-benzimidazol-1-yl}propyl)dimethylamine] | 25.1
c1cnc2c(c1)CC[C@@H]1CCCN(Cc3nc4ccccc4[nH]3)[C@H]21 (racemic) [Example 7, (cis)-1-(1H-Benzimidazol-2-ylmethyl)-1,2,3,4,4a,5,6,10b-octahydro-1,10-phenanthroline] | 3160
CN1CCN(c2cccc3nc(CN4CCC[C@H]5CCc6cccnc6[C@H]54)[nH]c23)CC1 (racemic) [Example 33, (cis)-1-{[4-(4-Methyl-1-piperazinyl)-1H-benzimidazol-2-yl]methyl}-1,2,3,4,4a,5,6,10b-octahydro-1,10-phenanthroline] | 0.398
NCCCn1c(CN2CCC[C@@H]3CCc4cccnc4[C@H]32)nc2ccccc21 (racemic) [Example 8, (trans)-3-[2-(3,4,4a,5,6,10b-Hexahydro-1,10-phenanthrolin-1(2H)-ylmethyl)-1H-benzimidazol-1-yl]-1-propanamine] | 490
c1cnc2c(c1)CC[C@@H]1CCCN(Cc3nc4ccccc4n3Cc3ccncc3)[C@H]21 (racemic) [Example 12, (cis)-1-{[1-(4-Pyridinylmethyl)-1H-benzimidazol-2-yl]methyl}-1,2,3,4,4a,5,6,10b-octahydro-1,10-phenanthroline] | 7940
CN1CCN(c2cccc3nc(CN4CCC[C@@H]5CCc6cccnc6[C@H]54)cn23)CC1 (racemic) [Example 15A, (trans)-1-{[5-(4-Methyl-1-piperazinyl)imidazo[1,2-a]pyridin-2-yl]methyl}-1,2,3,4,4a,5,6,10b-octahydro-1,10-phenanthroline] | 77.6
CN1CCN(c2cccc3nc(CN4CCC[C@@H]5CCc6cccnc6[C@@H]54)cn23)CC1 [Example 22, (4aS,10bR)-1-{[5-(4-Methyl-1-piperazinyl)imidazo[1,2-a]pyridin-2-yl]methyl}-1,2,3,4,4a,5,6,10b-octahydro-1,10-phenanthroline] | 158
c1cnc2c(c1)CC[C@H]1CCCN(Cc3nc4ccccc4[nH]3)[C@H]21 (racemic) [Example 6, (trans)-1-(1H-Benzimidazol-2-ylmethyl)-1,2,3,4,4a,5,6,10b-octahydro-1,10-phenanthroline] | 1120
CN(C)CCCn1c(CN2CCC[C@H]3CCc4cccnc4[C@@H]32)nc2ccccc21 (stereo in doubt) [Example 10A, (3-{2-[(4aR,10bR)-3,4,4a,5,6,10b-Hexahydro-1,10-phenanthrolin-1(2H)-ylmethyl]-1H-benzimidazol-1-yl}propyl)dimethylamine] | 417
CN(C)CCCn1c(CN2CCC[C@@H]3CCc4cccnc4[C@H]32)nc2ccccc21 (stereo in doubt) [Example 10B, (3-{2-[(4aS,10bS)-3,4,4a,5,6,10b-Hexahydro-1,10-phenanthrolin-1(2H)-ylmethyl]-1H-benzimidazol-1-yl}propyl)dimethylamine] | 200
CN1CCN(c2cccc3[nH]c(CN4CCC[C@@H]5CCc6cccnc6[C@H]54)nc23)CC1 (racemic) [Example 32, (trans)-1-{[4-(4-Methyl-1-piperazinyl)-1H-benzimidazol-2-yl]methyl}-1,2,3,4,4a,5,6,10b-octahydro-1,10-phenanthroline trifluoroacetate] | 200
CN1CCN(c2cccc3nc(CN4CCC[C@H]5CCc6cccnc6[C@H]54)cn23)CC1 [Example 27, (4aR,10bS)-1-{[5-(4-Methyl-1-piperazinyl)imidazo[1,2-a]pyridin-2-yl]methyl}-1,2,3,4,4a,5,6,10b-octahydro-1,10-phenanthroline] | 1.26
